Data as given in US11370897B2, “Curable composition comprising UV stabilizer” (Momentive Performance Materials Inc., priority 2019, dated 2022).
Read-outs that look alike come from different tables or passages of the source.

Experiment: Solubility tests of resorcinol products in alcoholic solvents
Type: physicochemical
Details: organic solvent or mixture, thermodynamic from solid, 20° C., Table 11, by product ratio DBMR/BTMR/DTMR
Method: To determine the solubility of resorcinol products, the following procedure was used:
0.50 g of pre-dried product (45 min @75° C. in oven) was combined with 5.00 ml of solvent (4.03 g of 2-butanol or 4.60 g of 1-methoxy-2-propanol). The mixture was handled in an ultrasonic bath for 1 min and stored afterwards under constant climate (20° C.) for 24 h.
The overlying solution was transfused carefully with a pipette. The solid content of this solution was measured thermogravimetrically with a halogen moisture analyzer (Mettler Toledo). This test procedure was repeated three times.

[1] = 1-methoxy-2-propanol, read-out: Solubility in 1-Methoxy-2-propanol
[2] = 2-butanol, read-out: Solubility in 2-butanol

| solubility at 24 h [1] | solubility at 24 h [2] | Compound |
| --- | --- | --- |
| 15000 µg/mL | 1000 µg/mL | Cc1cccc(C(=O)c2cc(C(=O)c3cccc(C)c3)c(O)c(C)c2O)c1 [DTMR, ditoluoylacyl-2-methyl resorcinol] |
| 4000 µg/mL | < 1000 µg/mL | Cc1c(O)c(C(=O)c2ccccc2)cc(C(=O)c2ccccc2)c1O [DBMR, dibenzoylacyl-2-methyl resorcinol] |
